Data taken from patent US12098144B2, “Piperazine indazole glucocorticoid receptor antagonists” (Corcept Therapeutics Incorporated, priority 2021, dated 2024).

Biological target: T1, glucocorticoid receptor (Homo sapiens, UniProt P04150)
T1 construct: endogenous in cells; ATCC cat
T1 sequence (P04150 1-777): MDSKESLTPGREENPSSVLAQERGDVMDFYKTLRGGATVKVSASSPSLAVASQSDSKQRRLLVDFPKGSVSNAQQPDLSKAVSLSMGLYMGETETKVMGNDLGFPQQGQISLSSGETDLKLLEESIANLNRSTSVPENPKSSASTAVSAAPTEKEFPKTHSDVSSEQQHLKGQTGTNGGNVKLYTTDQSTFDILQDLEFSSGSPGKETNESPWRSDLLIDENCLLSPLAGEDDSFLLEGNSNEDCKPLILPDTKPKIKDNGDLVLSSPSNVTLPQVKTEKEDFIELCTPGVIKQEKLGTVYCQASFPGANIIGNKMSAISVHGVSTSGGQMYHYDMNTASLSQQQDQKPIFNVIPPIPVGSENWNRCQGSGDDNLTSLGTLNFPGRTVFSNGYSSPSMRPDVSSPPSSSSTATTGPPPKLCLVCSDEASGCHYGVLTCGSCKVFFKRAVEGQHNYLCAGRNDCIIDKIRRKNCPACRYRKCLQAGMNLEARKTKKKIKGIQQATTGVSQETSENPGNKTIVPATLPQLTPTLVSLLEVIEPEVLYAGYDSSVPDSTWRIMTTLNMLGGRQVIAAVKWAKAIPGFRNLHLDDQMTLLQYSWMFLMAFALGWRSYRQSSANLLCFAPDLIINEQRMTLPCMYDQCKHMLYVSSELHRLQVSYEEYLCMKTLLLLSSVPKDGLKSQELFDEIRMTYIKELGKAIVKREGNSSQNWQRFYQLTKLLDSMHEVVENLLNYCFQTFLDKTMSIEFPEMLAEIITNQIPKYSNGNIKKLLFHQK
Experiment: Hep G2 TAT Ki: inhibition of dexamethasone-induced TAT in HepG2 cells (96 well)
Format: cell-based
Settings: challenge of 100 nM dexamethasone, IC50 converted to Ki by Cheng and Prusoff equation
Experimental: Glucocorticoid mediated activation of TAT occurs by transactivation of glucocorticoid response elements in the TAT promoter by glucocorticoid receptor-agonist complex.
HepG2 cells were cultured using MEME media supplemented with 10% (v/v) foetal bovine serum; 2 mM L-glutamine and 1% (v/v) NEAA at 37° C., 5%/95% (v/v) CO2/air.
Compounds were serially half log diluted in 100% (v/v) dimethylsulphoxide from a 10 mM stock.
HepG2 cells were then lysed with 30 μl of cell lysis buffer containing a protease inhibitor cocktail for 15 minutes at 4° C. […] After 2 hours incubation at 37° C. the reaction was terminated by the addition of 15 μl of 10M aqueous potassium hydroxide solution, and the plates incubated for a further 30 minutes at 37° C.
[compound] and fitting the data to a 4 parameter logistic equation.

Row | Ki | Structure (SMILES)
1 | 150 nM | Cc1cc2c(cnn2-c2ccc(F)cc2)cc1C1CN(S(=O)(=O)c2cnn(C)n2)CCN1Cc1ccn(C)n1 (single isomer, unassigned) [Example 80, 1-(4-fluorophenyl)-6-methyl-5-(1-((1-methyl-1H-pyrazol-3-yl)methyl)-4-((2-methyl-2H-1,2,3-triazol-4-yl)sulfonyl)piperazin-2-yl)-1H-indazole]
2 | 23 nM | Cc1cc2c(cnn2-c2ccc(F)cc2)cc1C1CN(S(=O)(=O)c2cccnc2)CCN1CC(C)C (single isomer, unassigned) [Example 97, 1-(4-fluorophenyl)-5-(1-isobutyl-4-(pyridin-3-ylsulfonyl)piperazin-2-yl)-6-methyl-1H-indazole]
3 | 37 nM | Cc1cc2c(cnn2-c2ccc(F)cc2)cc1C1CN(S(=O)(=O)c2ccccn2)CCN1CCC(F)(F)F (single isomer, unassigned) [Example 139, 1-(4-fluorophenyl)-6-methyl-5-(4-(pyridin-2-ylsulfonyl)-1-(3,3,3-trifluoropropyl)piperazin-2-yl)-1H-indazole]
4 | 56 nM | Cc1cc2c(cnn2-c2ccc(F)cc2)cc1C1CN(S(=O)(=O)c2cnccc2C)CCN1CC(C)C(F)(F)F (single isomer, unassigned) [Example 149, 1-(4-fluorophenyl)-6-methyl-5-(4-((4-methylpyridin-3-yl)sulfonyl)-1-(3,3,3-trifluoro-2-methylpropyl)piperazin-2-yl)-1H-indazole]
5 | 22 nM | Cc1cc2c(cnn2-c2ccc(F)cc2)cc1C1CN(S(=O)(=O)c2cnn(C(F)F)c2)CCN1CC(C)C (single isomer, unassigned) [Example 59, 5-(4-((1-(difluoromethyl)-1H-pyrazol-4-yl)sulfonyl)-1-isobutylpiperazin-2-yl)-1-(4-fluorophenyl)-6-methyl-1H-indazole]
6 | 76 nM | Cc1cc2c(cnn2-c2ccc(F)cc2)cc1C1CN(S(=O)(=O)c2cncc(F)c2)CCN1CC(C)C (stereo not drawn) [Example 43, 1-(4-fluorophenyl)-5-(4-((5-fluoropyridin-3-yl)sulfonyl)-1-isobutylpiperazin-2-yl)-6-methyl-1H-indazole]
7 | 58 nM | Cc1cc2c(cnn2-c2ccc(F)cc2)cc1C1CN(S(=O)(=O)c2cnn(C)n2)CCN1CCCC(F)(F)F (stereo not drawn) [Example 68, 1-(4-fluorophenyl)-6-methyl-5-(4-((2-methyl-2H-1,2,3-triazol-4-yl)sulfonyl)-1-(4,4,4-trifluorobutyl)piperazin-2-yl)-1H-indazole]
8 | 53 nM | CCn1ncc(S(=O)(=O)N2CCN(CC(C)C)C(c3cc4cnn(-c5ccc(F)cc5)c4cc3C)C2)n1 (stereo not drawn) [Example 40, 5-(4-((2-ethyl-2H-1,2,3-triazol-4-yl)sulfonyl)-1-isobutylpiperazin-2-yl)-1-(4-fluorophenyl)-6-methyl-1H-indazole]
9 | 7.5 nM | Cc1nc(S(=O)(=O)N2CCN(CC(C)C(F)(F)F)C(c3cc4cnn(-c5ccc(F)cc5)c4cc3C)C2)cs1 (single isomer, unassigned) [Example 146, 4-((3-(1-(4-fluorophenyl)-6-methyl-1H-indazol-5-yl)-4-(3,3,3-trifluoro-2-methylpropyl)piperazin-1-yl)sulfonyl)-2-methylthiazole]
10 | 29 nM | Cc1cc2c(cnn2-c2ccc(F)cc2)cc1C1CN(S(=O)(=O)c2cnn(C)n2)CCN1CC1CCOC1 (single isomer, unassigned) [Example 85, 1-(4-fluorophenyl)-6-methyl-5-(4-((2-methyl-2H-1,2,3-triazol-4-yl)sulfonyl)-1-((tetrahydrofuran-3-yl)methyl)piperazin-2-yl)-1H-indazole]
11 | 14 nM | Cc1cc2c(cnn2-c2ccc(F)cc2)cc1C1CN(S(=O)(=O)c2cnn(C)c2)CCN1CCC(F)(F)F (single isomer, unassigned) [Example 128, 1-(4-fluorophenyl)-6-methyl-5-(4-((1-methyl-1H-pyrazol-4-yl)sulfonyl)-1-(3,3,3-trifluoropropyl)piperazin-2-yl)-1H-indazole]
12 | 11 nM | Cc1ncc(S(=O)(=O)N2CCN(CC(C)C)C(c3cc4cnn(-c5ccc(F)cc5)c4cc3C)C2)s1 (single isomer, unassigned) [Example 31, 5-((3-(1-(4-fluorophenyl)-6-methyl-1H-indazol-5-yl)-4-isobutylpiperazin-1-yl)sulfonyl)-2-methylthiazole]
13 | 28 nM | Cc1cc2c(cnn2-c2ccc(F)cc2)cc1C1CN(S(=O)(=O)c2cn(C)nn2)CCN1CC(C)C (single isomer, unassigned) [Example 101, 1-(4-fluorophenyl)-5-(1-isobutyl-4-((1-methyl-1H-1,2,3-triazol-4-yl)sulfonyl)piperazin-2-yl)-6-methyl-1H-indazole]
14 | 91 nM | Cc1cc2c(cnn2-c2ccc(F)c(C#N)c2)cc1C1CN(S(=O)(=O)c2cnn(C)n2)CCN1CCC(F)(F)F (single isomer, unassigned) [Example 170, 2-fluoro-5-(6-methyl-5-(4-((2-methyl-2H-1,2,3-triazol-4-yl)sulfonyl)-1-(3,3,3-trifluoropropyl)piperazin-2-yl)-1H-indazol-1-yl)benzonitrile]

Further lines, the compound ahead of its results:

Row | Structure (SMILES) | Ki
15 | Cc1cc2c(cnn2-c2ccc(F)cc2)cc1C1CN(S(=O)(=O)N2CCOCC2)CCN1CC(C)C (single isomer, unassigned) [Example 53, 4-((3-(1-(4-fluorophenyl)-6-methyl-1H-indazol-5-yl)-4-isobutylpiperazin-1-yl)sulfonyl)morpholine] | 41 nM
16 | Cc1cc2c(cnn2-c2ccc(F)cc2)cc1C1CN(S(=O)(=O)c2nn(C)nc2C)CCN1CC(C)C (single isomer, unassigned) [Example 93, 5-(4-((2,5-dimethyl-2H-1,2,3-triazol-4-yl)sulfonyl)-1-isobutylpiperazin-2-yl)-1-(4-fluorophenyl)-6-methyl-1H-indazole] | 36 nM
17 | CC(C)CN1CCN(S(=O)(=O)c2cnn(C)n2)CC1c1cc2cnn(-c3ccc(F)cc3)c2cc1F (stereo not drawn) [Example 159, 6-fluoro-1-(4-fluorophenyl)-5-(1-isobutyl-4-((2-methyl-2H-1,2,3-triazol-4-yl)sulfonyl)piperazin-2-yl)-1H-indazole] | 220 nM
18 | Cc1cc2c(cnn2-c2ccc(F)cc2)cc1C1CN(S(=O)(=O)c2cn(CC(F)F)nc2C)CCN1CC(C)C (single isomer, unassigned) [Example 96, 5-(4-((1-(2,2-difluoroethyl)-3-methyl-1H-pyrazol-4-yl)sulfonyl)-1-isobutylpiperazin-2-yl)-1-(4-fluorophenyl)-6-methyl-1H-indazole] | 43 nM
19 | Cc1cc2c(cnn2-c2ccc(F)cc2)cc1C1CN(S(=O)(=O)N(C)C)CCN1CC(C)C (single isomer, unassigned) [Example 50, 3-(1-(4-fluorophenyl)-6-methyl-1H-indazol-5-yl)-4-isobutyl-N,N-dimethylpiperazine-1-sulfonamide] | 64 nM
20 | Cc1cc2c(cnn2-c2ccc(F)cc2)cc1[C@H]1CN(S(=O)(=O)c2cnn(C)n2)C[C@@H](C)N1CC(C)C (relative stereo) [Example 127] | 22 nM
21 | Cc1cc2c(cnn2-c2ccc(F)cc2)cc1C1CN(S(=O)(=O)c2cnn(C)n2)CCN1C(=O)C(C)C (stereo not drawn) [Example 35, 1-(2-(1-(4-fluorophenyl)-6-methyl-1H-indazol-5-yl)-4-((2-methyl-2H-1,2,3-triazol-4-yl)sulfonyl)piperazin-1-yl)-2-methylpropan-1-one] | 770 nM
22 | Cc1cc2c(cnn2-c2ccc(F)cc2)cc1C1CN(S(=O)(=O)c2cnn(C)n2)CCN1CC1CNC(=O)C1 (single isomer, unassigned) [Example 118, 4-((2-(1-(4-fluorophenyl)-6-methyl-1H-indazol-5-yl)-4-((2-methyl-2H-1,2,3-triazol-4-yl)sulfonyl)piperazin-1-yl)methyl)pyrrolidin-2-one] | 190 nM
23 | Cc1cc2c(cnn2-c2ccc(F)cc2)cc1C1CN(S(=O)(=O)c2cnn(C(C)C)n2)CCN1CC(C)C (stereo not drawn) [Example 37, 1-(4-fluorophenyl)-5-(1-isobutyl-4-((2-isopropyl-2H-1,2,3-triazol-4-yl)sulfonyl)piperazin-2-yl)-6-methyl-1H-indazole] | 76 nM
24 | CO[C@H]1C[C@@H](CN2CCN(S(=O)(=O)c3csc(C)n3)CC2c2cc3cnn(-c4ccc(F)cc4)c3cc2C)C1 (single isomer, unassigned) [Example 171, 4-((3-(1-(4-fluorophenyl)-6-methyl-1H-indazol-5-yl)-4-((3-methoxycyclobutyl)methyl)piperazin-1-yl)sulfonyl)-2-methylthiazole] | 24 nM
